Results reported in patent USRE28744E, “Crystalline p-hydroxyampicillin and salts thereof” (priority 1968, dated 1976).
Values after ≈ are worked out from the molar mass of the structure shown.

Key:
[1] = tested on: E.Coli; experiment: in vitro antibacterial screening, M.I.C., E.Coli; format: cell-based; settings: for MIC: Escherichia coli
Text: (§1) The four resulting hydroxypenicillins were then submitted to in vitro antibacterial screening in comparison with the two epimers of α-aminobenzylpenicillin.

[2] = tested on: Proteus mirabilis; experiment: in vitro antibacterial screening, M.I.C., Proteus mirabilis; format: cell-based
Text: as §1

[3] = tested on: Salm. typhi; experiment: in vitro antibacterial screening, M.I.C., Salm. typhi; format: cell-based; settings: for M.I.C. Salm. typhi: in vitro; for MIC: Salmonella enterica, TYPHI, read-out: M.I.C. Salm. typhi, in vitro
Text: as §1

[4] = tested on: Shigella flexneri; experiment: in vitro antibacterial screening, M.I.C., Shigella flexneri; format: cell-based; settings: for MIC: Shigella flexneri
Text: as §1

[5] = tested on: Kleb. pneum; experiment: in vitro antibacterial screening, M.I.C., Kleb. pneum; format: cell-based
Text: as §1

[6] = tested on: Gram-negative bacteria; settings: 100 μg./ml.
Experimental: (§2) Results were obtained by serial dilution in nutrient agar. The inoculum was one drop of an overnight broth culture, and M.I.C. values were read after 18 hours at 37°C.

[7] = tested on: E. coli 2; experiment: inhibition of E. coli 2; format: cell-based; settings: Escherichia coli, product contaminated with approximately 5% of 6-aminopenicillanic acid, read-out: concentration inhibiting E. coli 2
[8] = tested on: Staph. Oxford; experiment: inhibition of Staph. Oxford; format: cell-based; settings: product contaminated with approximately 5% of 6-aminopenicillanic acid; read-out: concentration inhibiting Staph. Oxford
[9] = comparison within series; cited from earlier work
[10] = clinical; settings: human, urine, po, 500 mg
Experimental: (§3) The two penicillins were then compared with ampicillin in absorption studies in human volunteers. Groups of fasting volunteers were each given 500 mg. of the appropriate penicillin by mouth in capsules, and blood samples were withdrawn at regular intervals and assayed biologically to determine the serum concentration of the penicillins. The urine was also collected over a 6 hour period and similarly assayed to determine the proportion of the dose excreted via the kidneys.

[11] = absorption studies in human volunteers (oral); settings: serum, 500 mg
Experimental: as §3

[12] = tested on: E. coli 37; experiment: serial dilution in nutrient agar, synergy M.I.C., E. coli 37; format: cell-based; settings: in the presence of 100 μg./ml. Nafcillin
Experimental: as §2

[13] = tested on: Proteus morganii G; experiment: serial dilution in nutrient agar, synergy M.I.C., Proteus morganii G; format: cell-based
Experimental: as §2

[14] = tested on: Proteus vulgaris K; experiment: serial dilution in nutrient agar, synergy M.I.C., Proteus vulgaris K; format: cell-based
Experimental: as §2

[15] = tested on: Paracolon 232; experiment: serial dilution in nutrient agar, synergy M.I.C., Paracolon 232; format: cell-based; settings: in the presence of 100 μg./ml. Methicillin
Experimental: as §2

[16] = tested on: Klebsiella C 978; experiment: serial dilution in nutrient agar, synergy M.I.C., Klebsiella C 978; format: cell-based
Experimental: as §2

[17] = in the presence of 100 μg./ml. Dicloxacillin
[18] = in the presence of 100 μg./ml. Flucloxacillin
[19] = in the presence of 100 μg./ml. Methicillin

CC1(C)S[C@@H]2C(NC(=O)C(N)c3cccc(O)c3)C(=O)N2[C@H]1C(=O)O (stereo partly drawn) [Example 8, 6[(+)α-amino-m-hydroxyphenylacetamido]penicillanic Acid]
M.I.C. E.Coli ([1]; listed as m OH +): 25 µg/mL | M.I.C. Proteus mirabilis ([2]; listed as m OH +): 25 µg/mL | M.I.C. Salm. typhi ([3]; listed as m OH +): 12.5 µg/mL | M.I.C. Shigella flexneri ([4]; listed as m OH +): 25 µg/mL | M.I.C. Kleb. pneum ([5]; listed as m OH +): 12.5 µg/mL

CCOc1ccc2ccccc2c1C(=O)N[C@@H]1C(=O)N2[C@@H]1SC(C)(C)[C@@H]2C(=O)O [nafcillin]
inhibition of the Gram-negative bacteria by the penicillinase-resistant penicillin by itself [6]: None of these penicillinase-resistant penicillins by itself inhibits the Gram-negative bacteria at 100 μg./ml.

CC1(C)S[C@@H]2[C@H](NC(=O)[C@@H](N)c3ccccc3)C(=O)N2[C@H]1C(=O)O [None +, reference compound]
MIC [1]: 12.5 µg/mL (≈ 35.8 µM) | MIC [3]: 2.5 µg/mL (≈ 7.15 µM) | MIC [5]: 5 µg/mL (≈ 14.3 µM)

CC1(C)S[C@@H]2[C@H](NC(=O)[C@H](N)c3ccc(OC(=O)OCc4ccccc4)cc3)C(=O)N2[C@H]1C(=O)O [Example 12, 6-[(-)-α-amino-α-(p-benzyloxycarbonyloxyphenyl)-acetamido]penicillanic acid]
MIC [7]: 5 µg/mL (≈ 10 µM) | MIC [8]: 0.1 µg/mL (≈ 0.2 µM)

Cc1onc(-c2c(F)cccc2Cl)c1C(=O)N[C@@H]1C(=O)N2[C@@H]1SC(C)(C)[C@@H]2C(=O)O [flucloxacillin]
inhibition of the Gram-negative bacteria by the penicillinase-resistant penicillin by itself [6]: None of these penicillinase-resistant penicillins by itself inhibits the Gram-negative bacteria at 100 μg./ml.

Cc1onc(-c2ccccc2Cl)c1C(=O)N[C@@H]1C(=O)N2[C@@H]1SC(C)(C)[C@@H]2C(=O)O [cloxacillin]
inhibition of the Gram-negative bacteria by the penicillinase-resistant penicillin by itself [6]: None of these penicillinase-resistant penicillins by itself inhibits the Gram-negative bacteria at 100 μg./ml.

CC1(C)S[C@@H]2[C@H](NC(=O)[C@@H](N)c3ccc(O)cc3)C(=O)N2[C@H]1C(=O)O [Example 4, 6[(+)α-amino-p-hydroxyphenylacetamido]penicillanic Acid]
MIC [1]: 25 µg/mL (≈ 68.4 µM)

Cc1onc(-c2c(Cl)cccc2Cl)c1C(=O)N[C@@H]1C(=O)N2[C@@H]1SC(C)(C)[C@@H]2C(=O)O [dicloxacillin]
oral absorption of known penicillins (in words) [9]: better absorbed than cloxacillin | inhibition of the Gram-negative bacteria by the penicillinase-resistant penicillin by itself [6]: None of these penicillinase-resistant penicillins by itself inhibits the Gram-negative bacteria at 100 μg./ml.

CC1(C)S[C@@H]2[C@H](NC(=O)[C@H](N)c3ccccc3)C(=O)N2[C@H]1C(=O)O [Ampicillin, D(-)-epimer of α-aminobenzyl penicillin]
MIC [1]: 5 µg/mL (≈ 14.3 µM) | MIC ([2]; Proteus mirabilis): 1.25 µg/mL (≈ 3.58 µM) | MIC [3]: 0.6 µg/mL (≈ 1.72 µM) | MIC [4]: 12.5 µg/mL (≈ 35.8 µM) | MIC [5]: 2.5 µg/mL (≈ 7.15 µM) | dose excreted at 6 h [10]: 42%

COc1cccc(OC)c1C(=O)N[C@@H]1C(=O)N2[C@@H]1SC(C)(C)[C@@H]2C(=O)O [methicillin]
inhibition of the Gram-negative bacteria by the penicillinase-resistant penicillin by itself [6]: None of these penicillinase-resistant penicillins by itself inhibits the Gram-negative bacteria at 100 μg./ml.

CC1(C)S[C@@H]2C(NC(=O)C(N)c3cccc(O)c3)C(=O)N2[C@H]1C(=O)O (stereo partly drawn) [Example 7, 6[(-)α-amino-m-hydroxyphenylacetamido]penicillanic Acid]
M.I.C. E.Coli ([1]; listed as m OH -): 5 µg/mL | M.I.C. Proteus mirabilis ([2]; listed as m OH -): 2.5 µg/mL | M.I.C. Salm. typhi ([3]; listed as m OH -): 1.25 µg/mL | M.I.C. Shigella flexneri ([4]; listed as m OH -): 2.5 µg/mL | M.I.C. Kleb. pneum ([5]; listed as m OH -): 1.25 µg/mL | dose excreted at 6 h [10]: 31% | concentration at 0.5 h [11]: 910 ng/mL | concentration at 1 h [11]: 2500 ng/mL | concentration at 2 h [11]: 2860 ng/mL | concentration at 4 h [11]: 1150 ng/mL | concentration at 6 h [11]: 440 ng/mL

CC1(C)S[C@@H]2[C@H](NC(=O)[C@H](N)c3ccc(O)cc3)C(=O)N2[C@H]1C(=O)O [Example 3, 6-[(-)α-amino-p-hydroxyphenylacetamido]Penicillanic Acid]
MIC [1]: 5 µg/mL (≈ 13.7 µM) | MIC [4]: 2.5 µg/mL (≈ 6.84 µM) | Minimum inhibitory concentration, E. coli 37 [12]: 2.5 µg/mL | Minimum inhibitory concentration, Proteus morganii G ([13]; None (alone), 18 hours at 37°C): 250 µg/mL | Minimum inhibitory concentration, Proteus morganii G [13, 17]: 5.0 µg/mL | Minimum inhibitory concentration, Proteus morganii G [13, 18]: 5.0 µg/mL | Minimum inhibitory concentration, Proteus vulgaris K ([14]; None (alone), 18 hours at 37°C): 250 µg/mL | Minimum inhibitory concentration, Proteus vulgaris K [14, 17]: 2.5 µg/mL | Minimum inhibitory concentration, Proteus vulgaris K [14, 18]: 5.0 µg/mL | Minimum inhibitory concentration, Proteus vulgaris K [14, 19]: 50 µg/mL | Minimum inhibitory concentration, Paracolon 232 [15]: 2.5 µg/mL | Minimum inhibitory concentration, Klebsiella C 978 ([16]; None (alone), 18 hours at 37°C): 250 µg/mL | Minimum inhibitory concentration, Klebsiella C 978 ([16]; in the presence of 100 μg./ml. Cloxacillin): 50 µg/mL | Minimum inhibitory concentration, Klebsiella C 978 [16, 17]: 50 µg/mL | Minimum inhibitory concentration, Klebsiella C 978 [16, 18]: 25 µg/mL | Minimum inhibitory concentration, Klebsiella C 978 [16, 19]: 50 µg/mL | Minimum inhibitory concentration, Klebsiella C 978 ([16]; in the presence of 100 μg./ml. Nafcillin): 50 µg/mL | dose excreted at 6 h [10]: 74.5% | concentration at 0.5 h [11]: 2900 ng/mL | concentration at 1 h [11]: 8250 ng/mL | concentration at 2 h [11]: 10800 ng/mL | concentration at 4 h [11]: 3100 ng/mL | concentration at 6 h [11]: 1130 ng/mL
